This note sets out measurements from ChEMBL document CHEMBL3132750, “4-Chlorocolchicine derivatives bearing a thiourea side chain at the C-7 position as potent anticancer agents” (Medchemcomm, 2014).

Each structure is given as a SMILES string. pIC50: −log10 of the molar value.

For one test, the system named is HCT-116. Nature of the test: Cytotoxicity against human HCT116 cells assessed as inhibition of cell proliferation after 96 hrs. The format is functional, cell-based. The note with it: HCT-116, 96 h.
For `COc1c(OC)c2c(c(C(F)F)c1OC)CC[C@H](NC(C)=O)c1cc(=O)c(OC)ccc1-2`, the negative-log IC50 (pIC50) is 7.34.

For the compound `CCCN(CCC)C(=S)N[C@H]1CCc2c(Cl)c(OC)c(OC)c(OC)c2-c2ccc(OC)c(=O)cc21`, the negative logarithm of the IC50 (pIC50) is 7.46.

As to `COc1c(OC)c2c(c(C(F)(F)F)c1OC)CC[C@H](NC(C)=O)c1cc(=O)c(OC)ccc1-2`, the pIC50 was 7.42.

Take `COc1c(Cl)c2c(c(OC)c1OC)-c1ccc(OC)c(=O)cc1[C@@H](NC(=O)Nc1ccccc1)CC2`: the pIC50 was 7.44.

For the compound `COc1c(Cl)c2c(c(OC)c1OC)-c1ccc(OC)c(=O)cc1[C@@H](NC(=S)Nc1cccnn1)CC2`, the pIC50 was 7.88.

For the compound `COc1c(Cl)c2c(c(OC)c1OC)-c1ccc(OC)c(=O)cc1[C@@H](NC(=S)N1CCCCC1)CC2`, the negative logarithm of the IC50 (pIC50) was 8.16.

Take `COc1ccc(NC(=S)N[C@H]2CCc3c(Cl)c(OC)c(OC)c(OC)c3-c3ccc(OC)c(=O)cc32)cc1`: the negative-log IC50 (pIC50) is 8.85.

In the case of `COc1ccccc1NC(=S)N[C@H]1CCc2c(Cl)c(OC)c(OC)c(OC)c2-c2ccc(OC)c(=O)cc21`, the negative logarithm of the IC50 (pIC50) was 7.53.

Regarding `COc1c(Cl)c2c(c(OC)c1OC)-c1ccc(OC)c(=O)cc1[C@@H](NC(=S)Nc1cc(C)on1)CC2`, the pIC50 was 8.14.

For the compound `COc1c(CF)c2c(c(OC)c1OC)-c1ccc(OC)c(=O)cc1[C@@H](NC(C)=O)CC2`, the negative logarithm of the IC50 (pIC50) is 5.32.

With `COc1c(Cl)c2c(c(OC)c1OC)-c1ccc(OC)c(=O)cc1[C@@H](NC(=S)Nc1cccnc1)CC2`, the negative-log IC50 (pIC50) is 7.38.

For the compound `COc1c(Cl)c2c(c(OC)c1OC)-c1ccc(OC)c(=O)cc1[C@@H](NC(=S)Nc1ccccn1)CC2`, the pIC50 was 7.21.

`COc1c(Cl)c2c(c(OC)c1OC)-c1ccc(OC)c(=O)cc1[C@@H](NS(=O)(=O)C(C)C)CC2`: the pIC50 was 7.39.

As for `COc1c(Cl)c2c(c(OC)c1OC)-c1ccc(OC)c(=O)cc1[C@@H](NS(=O)(=O)CC(C)C)CC2`, the negative logarithm of the IC50 (pIC50) is 7.48.

`COc1c(Cl)c2c(c(OC)c1OC)-c1ccc(OC)c(=O)cc1[C@@H](NC(=S)Nc1ccncc1)CC2`: the negative logarithm of the IC50 (pIC50) is 7.47.

For `COc1c(Cl)c2c(c(OC)c1OC)-c1ccc(OC)c(=O)cc1[C@@H](NC(=S)Nc1nc(C)cs1)CC2`, the pIC50 is 8.62.

Take `COc1c(Cl)c2c(c(OC)c1OC)-c1ccc(OC)c(=O)cc1[C@@H](NC(=S)Nc1cccc(N(C)C)c1)CC2`: the pIC50 is 7.62.

In a further test the test system is HT-29. Nature of the test: Cytotoxicity against human HT-29 cells assessed as inhibition of cell proliferation after 96 hrs. The format is functional, cell-based. The following applies: HT-29, 96 h.
On to `COc1c(OC)c2c(c(C(F)F)c1OC)CC[C@H](NC(C)=O)c1cc(=O)c(OC)ccc1-2`, for which the negative-log IC50 (pIC50) was 7.32.

For the compound `CCCN(CCC)C(=S)N[C@H]1CCc2c(Cl)c(OC)c(OC)c(OC)c2-c2ccc(OC)c(=O)cc21`, the negative-log IC50 (pIC50) is 7.42.

Consider `COc1c(OC)c2c(c(C(F)(F)F)c1OC)CC[C@H](NC(C)=O)c1cc(=O)c(OC)ccc1-2`, for which the negative logarithm of the IC50 (pIC50) was 7.46.

Turning to `COc1c(Cl)c2c(c(OC)c1OC)-c1ccc(OC)c(=O)cc1[C@@H](NC(=O)Nc1ccccc1)CC2`, the pIC50 is 7.45.

Turning to `COc1c(Cl)c2c(c(OC)c1OC)-c1ccc(OC)c(=O)cc1[C@@H](NC(=S)Nc1cccnn1)CC2`, the pIC50 is 8.20.

As to `COc1c(Cl)c2c(c(OC)c1OC)-c1ccc(OC)c(=O)cc1[C@@H](NC(=S)N1CCCCC1)CC2`, the pIC50 is 8.21.

Turning to `COc1ccc(NC(=S)N[C@H]2CCc3c(Cl)c(OC)c(OC)c(OC)c3-c3ccc(OC)c(=O)cc32)cc1`, the negative logarithm of the IC50 (pIC50) was 9.52.

Regarding `COc1ccccc1NC(=S)N[C@H]1CCc2c(Cl)c(OC)c(OC)c(OC)c2-c2ccc(OC)c(=O)cc21`, the pIC50 was 7.82.

As for `COc1c(Cl)c2c(c(OC)c1OC)-c1ccc(OC)c(=O)cc1[C@@H](NC(=S)Nc1cc(C)on1)CC2`, the pIC50 was 8.25.

With `COc1c(CF)c2c(c(OC)c1OC)-c1ccc(OC)c(=O)cc1[C@@H](NC(C)=O)CC2`, the pIC50 is 5.58.

As for `COc1c(Cl)c2c(c(OC)c1OC)-c1ccc(OC)c(=O)cc1[C@@H](NC(=S)Nc1cccnc1)CC2`, the negative-log IC50 (pIC50) is 7.50.

As for `COc1c(Cl)c2c(c(OC)c1OC)-c1ccc(OC)c(=O)cc1[C@@H](NC(=S)Nc1ccccn1)CC2`, the negative logarithm of the IC50 (pIC50) was 7.46.

On to `COc1c(Cl)c2c(c(OC)c1OC)-c1ccc(OC)c(=O)cc1[C@@H](NS(=O)(=O)C(C)C)CC2`, for which the negative logarithm of the IC50 (pIC50) is 7.37.

For the compound `COc1c(Cl)c2c(c(OC)c1OC)-c1ccc(OC)c(=O)cc1[C@@H](NS(=O)(=O)CC(C)C)CC2`, the pIC50 is 7.44.

With `COc1c(Cl)c2c(c(OC)c1OC)-c1ccc(OC)c(=O)cc1[C@@H](NC(=S)Nc1ccncc1)CC2`, the pIC50 was 7.63.

Consider `COc1c(Cl)c2c(c(OC)c1OC)-c1ccc(OC)c(=O)cc1[C@@H](NC(=S)Nc1nc(C)cs1)CC2`, for which the pIC50 is 9.40.

On to `COc1c(Cl)c2c(c(OC)c1OC)-c1ccc(OC)c(=O)cc1[C@@H](NC(=S)Nc1cccc(N(C)C)c1)CC2`, for which the pIC50 is 8.36.

Another test deals with A549. The test is described as follows: Cytotoxicity against human A549 cells assessed as inhibition of cell proliferation after 96 hrs. The format is functional, cell-based. The note with it: A549, 96 h.
Regarding `COc1c(OC)c2c(c(C(F)F)c1OC)CC[C@H](NC(C)=O)c1cc(=O)c(OC)ccc1-2`, the negative logarithm of the IC50 (pIC50) is 7.26.

Consider `CCCN(CCC)C(=S)N[C@H]1CCc2c(Cl)c(OC)c(OC)c(OC)c2-c2ccc(OC)c(=O)cc21`, for which the negative logarithm of the IC50 (pIC50) is 7.39.

Turning to `COc1c(OC)c2c(c(C(F)(F)F)c1OC)CC[C@H](NC(C)=O)c1cc(=O)c(OC)ccc1-2`, the pIC50 was 7.26.

For `COc1c(Cl)c2c(c(OC)c1OC)-c1ccc(OC)c(=O)cc1[C@@H](NC(=O)Nc1ccccc1)CC2`, the pIC50 is 7.32.

`COc1c(Cl)c2c(c(OC)c1OC)-c1ccc(OC)c(=O)cc1[C@@H](NC(=S)Nc1cccnn1)CC2`: the pIC50 is 7.40.

Turning to `COc1c(Cl)c2c(c(OC)c1OC)-c1ccc(OC)c(=O)cc1[C@@H](NC(=S)N1CCCCC1)CC2`, the pIC50 was 8.02.

Turning to `COc1ccc(NC(=S)N[C@H]2CCc3c(Cl)c(OC)c(OC)c(OC)c3-c3ccc(OC)c(=O)cc32)cc1`, the negative logarithm of the IC50 (pIC50) is 8.10.

On to `COc1ccccc1NC(=S)N[C@H]1CCc2c(Cl)c(OC)c(OC)c(OC)c2-c2ccc(OC)c(=O)cc21`, for which the pIC50 is 7.11.

Turning to `COc1c(Cl)c2c(c(OC)c1OC)-c1ccc(OC)c(=O)cc1[C@@H](NC(=S)Nc1cc(C)on1)CC2`, the pIC50 was 7.37.

As to `COc1c(CF)c2c(c(OC)c1OC)-c1ccc(OC)c(=O)cc1[C@@H](NC(C)=O)CC2`, the negative-log IC50 (pIC50) is 5.06.

Turning to `COc1c(Cl)c2c(c(OC)c1OC)-c1ccc(OC)c(=O)cc1[C@@H](NC(=S)Nc1cccnc1)CC2`, the pIC50 was 6.73.

As for `COc1c(Cl)c2c(c(OC)c1OC)-c1ccc(OC)c(=O)cc1[C@@H](NC(=S)Nc1ccccn1)CC2`, the negative logarithm of the IC50 (pIC50) was 6.77.

For `COc1c(Cl)c2c(c(OC)c1OC)-c1ccc(OC)c(=O)cc1[C@@H](NS(=O)(=O)C(C)C)CC2`, the pIC50 was 7.35.

On to `COc1c(Cl)c2c(c(OC)c1OC)-c1ccc(OC)c(=O)cc1[C@@H](NS(=O)(=O)CC(C)C)CC2`, for which the pIC50 is 7.39.

Consider `COc1c(Cl)c2c(c(OC)c1OC)-c1ccc(OC)c(=O)cc1[C@@H](NC(=S)Nc1ccncc1)CC2`, for which the pIC50 is 6.61.

Regarding `COc1c(Cl)c2c(c(OC)c1OC)-c1ccc(OC)c(=O)cc1[C@@H](NC(=S)Nc1nc(C)cs1)CC2`, the pIC50 is 8.12.

For the compound `COc1c(Cl)c2c(c(OC)c1OC)-c1ccc(OC)c(=O)cc1[C@@H](NC(=S)Nc1cccc(N(C)C)c1)CC2`, the negative-log IC50 (pIC50) is 7.42.

Broadly, the pIC50 is the IC50 on a negative log10 scale, so that one unit is a factor of ten.
